In BindingDB's records for patent US20250313563 (The Broad Institute, 2025):
Several values for one entry are separate records, joined by “and”; a condition that tells them apart may be missing. Identical values can stand only once.

Experiments:
[1] = molecular target: Glycogen synthase kinase-3 alpha (Homo sapiens, UniProt P49840); assay: TR-FRET Assay
How it was run: (§1)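 Signal is measured as TR-FRET between a terbium anti-phospho-Ser641 antibody and streptavidin-d2, added after an EDTA quench. Compounds are preincubated 30 min in assay buffer.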

[2] = molecular target: Glycogen synthase kinase-3 beta (Homo sapiens, UniProt P49841); assay: TR-FRET Assay
How it was run: as §1

Chain of Glycogen synthase kinase-3 alpha (P49840 whole entry): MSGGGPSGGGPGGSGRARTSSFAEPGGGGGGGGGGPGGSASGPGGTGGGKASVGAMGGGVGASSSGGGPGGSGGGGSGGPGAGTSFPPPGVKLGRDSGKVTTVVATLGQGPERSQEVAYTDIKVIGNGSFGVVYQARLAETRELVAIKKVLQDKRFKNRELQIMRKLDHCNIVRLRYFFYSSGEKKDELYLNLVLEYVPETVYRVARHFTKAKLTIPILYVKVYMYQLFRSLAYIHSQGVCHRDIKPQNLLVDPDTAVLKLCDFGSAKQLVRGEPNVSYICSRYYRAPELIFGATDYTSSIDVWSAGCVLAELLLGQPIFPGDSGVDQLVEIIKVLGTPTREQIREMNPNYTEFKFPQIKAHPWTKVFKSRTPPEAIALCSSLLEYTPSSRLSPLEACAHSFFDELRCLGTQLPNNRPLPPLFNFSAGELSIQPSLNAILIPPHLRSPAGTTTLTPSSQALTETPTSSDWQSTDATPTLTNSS
Chain of Glycogen synthase kinase-3 beta (P49841 whole entry): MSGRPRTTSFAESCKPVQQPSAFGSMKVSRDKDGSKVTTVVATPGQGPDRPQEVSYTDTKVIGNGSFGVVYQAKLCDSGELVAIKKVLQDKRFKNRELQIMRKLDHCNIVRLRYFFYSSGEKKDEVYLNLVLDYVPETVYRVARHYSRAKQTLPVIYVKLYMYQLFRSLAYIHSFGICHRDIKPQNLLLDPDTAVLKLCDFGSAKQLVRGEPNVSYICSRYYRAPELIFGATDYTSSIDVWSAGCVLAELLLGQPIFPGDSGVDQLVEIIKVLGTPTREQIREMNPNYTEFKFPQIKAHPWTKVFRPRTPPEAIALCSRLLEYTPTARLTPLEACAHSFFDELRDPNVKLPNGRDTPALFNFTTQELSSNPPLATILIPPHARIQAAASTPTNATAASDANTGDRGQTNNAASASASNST

SMILES	IC50 [1]	IC50 [2]
CC[C@@]1(c2cccc(-c3ccncc3)c2)C2=CN=NC2NC2=C1C(=O)CC(C)(C)[C@@H]2F (stereo partly specified) [US20250313563, Compound 959344]	> 5000 nM	> 5000 nM
CC[C@@]1(c2cccc(C(F)(F)F)c2)C2=C(N=NC2)NC2=C1C(=O)N(Cc1ccccc1)[C@H]2C [US20250313563, Compound 930333]	> 5000 nM	> 5000 nM
CC1(C)CC(=O)C2=C(C1)NC1=C(CN=N1)C2(C)c1cc(Cl)ccc1Cl (stereo unspecified) [US20250313563, Compound 806605]	1000 to 5000 nM	> 5000 nM
CCC1(c2cccc(OCCOC)c2)C2=CN=NC2NC2=C1C(=O)CC(C)(C)C2 (stereo unspecified) [US20250313563, Compound 801446]	100 to 1000 nM	> 1670 nM
CC(C)(C)CC1N=NC2=C1[C@@](C)(c1cccc(S(=O)(=O)CC3CC3)c1)C1=C(CC(C)(C)NC1=O)N2 (stereo partly specified) [US20250313563, Compound 108006]	> 5000 nM	> 5000 nM
CC[C@]1(c2ccccc2)C2=CN=NC2NC2=C1C(=O)C[C@]1(CCNC1=O)C2 (stereo partly specified) [US20250313563, Compound 950161]	1000 to 5000 nM	> 5000 nM
CCC1(c2cccc(-c3ccnc(C)c3C)c2)C2=C(CC(C)(C)NC2=O)NC2N=NC(C)=C21 (stereo unspecified) [US20250313563, Compound 947399]	100 to 1000 nM	1000 to 5000 nM
CC[C@@]1(c2cccc(CN(C)c3ccc(F)nc3)c2)C2=CN=NC2NC2=C1C(=O)CC(C)(C)C2 (stereo partly specified) [US20250313563, Compound 932667]	> 5000 nM	> 5000 nM
CC[C@@]1(c2cccc(N3CCCc4ncccc43)c2)C2=CN=NC2NC2=C1C(=O)CC(C)(C)C2 (stereo partly specified) [US20250313563, Compound 917079]	100 to 1000 nM	1000 to 5000 nM
CC1(C)CC(=O)C2=C(C1)NC1=C(CN=N1)C21CN(Cc2ccccn2)C1 [US20250313563, Compound 929438]	> 5000 nM	> 5000 nM
CC[C@]1(c2cccc(-c3cnn(C)c3)c2)C2=C(CC(C)(C)NC2=O)NC2N=NC(F)=C21 (stereo partly specified) [US20250313563, Compound 949002]	1000 to 5000 nM	> 5000 nM
CC[C@@]1(c2cccc(-c3cc(C)ncc3F)c2)C2=C(CC(C)(C)NC2=O)NC2N=NC(C(F)(F)F)=C21 (stereo partly specified) [US20250313563, Compound 949650]	< 100 nM and 100 to 1000 nM	< 100 nM and 1000 to 5000 nM
CC1(C)CC(=O)C2=C(C1)NC1=C(CN=N1)[C@]21CCN(S(=O)(=O)C2CCCC2)C1 [US20250313563, Compound 943482]	< 100 nM and 100 to 1000 nM	< 100 nM and 100 to 1000 nM
CC[C@]1(c2cccc(C3=CN=NC3)c2)C2=C(CC(C)(C)CC2=O)NC2N=NC(C)=C21 (stereo partly specified) [US20250313563, Compound 913044]	100 to 1000 nM	100 to 1000 nM
CC[C@]1(c2cccc(OC)c2)C2=C(CC(C)(C)NC2=O)NC2N=NC(C)=C21 (stereo partly specified) [US20250313563, Compound 949328]	1000 to 5000 nM	> 5000 nM
CC[C@]1(c2cccc(-c3ccnc4cc(Cl)c(C)cc34)c2)C2=CN=NC2NC2=C1C(=O)NC(C)(C)C2 (stereo partly specified) [US20250313563, Compound 948645]	100 to 1000 nM	> 5000 nM
CC1(C)CC(=O)C2=C(C1)NC1=C(CN=N1)C21CN(C(=O)c2ccccc2)C1 [US20250313563, Compound 893315]	> 5000 nM	> 5000 nM
CC[C@@]1(c2cccc(N3CCOCC3)c2)C2=CN=NC2NC2=C1C(=O)CC(C)(C)C2 (stereo partly specified) [US20250313563, Compound 810363]	100 to 1000 nM	100 to 1000 nM
CC[C@]1(c2cccc(-c3ccncc3F)c2)C2=C(CC(C)(C)NC2=O)NC2N=NC(F)=C21 (stereo partly specified) [US20250313563, Compound 949643]	> 5000 nM	> 5000 nM
CC[C@@]1(c2cccc(-c3ccnc(C)c3F)c2)C2=C(CC(C)(C)CC2=O)NC2N=NC(C)=C21 (stereo partly specified) [US20250313563, Compound 927340]	> 5000 nM	> 5000 nM
CCC1(c2ccccc2)C2=C(N=NC2)NC2=C1C(=O)C1CCC21 (stereo unspecified) [US20250313563, Compound 861716]	1000 to 5000 nM	> 5000 nM
CCC1(c2cccc(N3CCCC3)c2)C2=CN=NC2NC2=C1C(=O)CC(C)(C)C2 (stereo unspecified) [US20250313563, Compound 801317]	100 to 1000 nM	100 to 1000 nM
CC1(C)CC(=O)C2=C(C1)NC1N=NC(CCC(F)(F)F)=C1C21CCc2c(F)cccc21 (stereo unspecified) [US20250313563, Compound 841868]	100 to 1000 nM	100 to 1000 nM
CC[C@@]1(c2cccc(-c3cnc4n3CCCC4)c2)C2=CN=NC2NC2=C1C(=O)CC(C)(C)C2 (stereo partly specified) [US20250313563, Compound 945607]	< 100 nM and 1000 to 5000 nM	100 to 1000 nM and > 5000 nM
CC[C@@]1(c2cccc(C(F)(F)F)c2)C2=CN=NC2NC2=C1C(=O)N(c1cn(C)nc1C)CC2 (stereo partly specified) [US20250313563, Compound 949642]	100 to 1000 nM	1000 to 5000 nM
CCC1(c2cccc(C(F)(F)F)c2)C2=C(N=NC2)NC2=C1C(=O)N(C)C2 (stereo unspecified) [US20250313563, Compound 917294]	100 to 1000 nM	1000 to 5000 nM
CCC1(c2cccc(-c3ccnc(C(C)(C)C)c3)c2)C2=CN=NC2NC2=C1C(=O)CC(C)(C)C2 (stereo unspecified) [US20250313563, Compound 947490]	100 to 1000 nM	1000 to 5000 nM
CC(=O)N1CCC2(C1)C1=CN=NC1NC1=C2C(=O)CC(C)(C)C1 (stereo unspecified) [US20250313563, Compound 826763]	100 to 1000 nM	1000 to 5000 nM
CC[C@@]1(c2cccc(-c3ccncc3C)c2)C2=CN=NC2NC2=C1C(=O)NC1(CCC1)C2 (stereo partly specified) [US20250313563, Compound 948512]	< 100 nM and 100 to 1000 nM	< 100 nM and 1000 to 5000 nM

Now from value to compound:

IC50 [1]	IC50 [2]	SMILES
100 to 1000 nM	100 to 1000 nM	CC(=O)N1CC2(C1)C[C@]1(CO2)C2=C(N=NC2)NC2=C1C(=O)CC(C)(C)C2 [US20250313563, Compound 926872]
< 100 nM	< 100 nM	CCC1(c2cccc(Oc3ncccn3)c2)C2=CN=NC2NC2=C1C(=O)CC(C)(C)C2 (stereo unspecified) [US20250313563, Compound 947400]
< 100 nM	< 100 nM	CC1(C)CC(=O)C2=C(C1)NC1=C(CN=N1)C21CCN(S(=O)(=O)c2cccc(Cl)c2Cl)CC1 [US20250313563, Compound 947249]
< 100 nM	100 to 1000 nM	CCC1(c2cccc(C(F)(F)F)c2)C2=C(N=NC2)NC2=C1C(=O)NC2(C)C (stereo unspecified) [US20250313563, Compound 912104]
< 100 nM	100 to 1000 nM	CC[C@]1(c2cccc(C(F)(F)F)c2)C2=CN=NC2NC2=C1C(=O)N[C@H](C)C2 (stereo partly specified) [US20250313563, Compound 912096]
< 100 nM	100 to 1000 nM	CCC1(c2cccc(N(C)c3cccc(OC)n3)c2)C2=CN=NC2NC2=C1C(=O)CC(C)(C)C2 (stereo unspecified) [US20250313563, Compound 913121]
< 100 nM	100 to 1000 nM	CC[C@]1(c2cccc(C(F)(F)F)c2)C2=C(N=NC2)NC2=C1C(=O)NC2(C)C [US20250313563, Compound 913451]
< 100 nM	100 to 1000 nM	CCC1(c2cccc(-c3ccnc4c3CCC4)c2)C2=C(N=NC2)NC2=C1C(=O)C(C)(C)C2 (stereo unspecified) [US20250313563, Compound 952557]
< 100 nM	100 to 1000 nM	CCC1(c2cccc(C(C)C)c2)C2=CN=NC2NC2=C1C(=O)CC(C)(C)C2 (stereo unspecified) [US20250313563, Compound 801322]
< 100 nM	< 100 nM	CC1(C)CC2=C(C(=O)N1)C1(CCN(S(=O)(=O)c3ccc(F)cc3)CC1)C1=C(N=NC1)N2 [US20250313563, Compound 943963]
< 100 nM	100 to 1000 nM	CC1(C)CC(=O)C2=C(C1)NC1=C(CN=N1)C21CCSC1 (stereo unspecified) [US20250313563, Compound 883973]
< 100 nM	< 100 nM	CCC1(c2cccc(C3=CN=NC3)c2)C2=C(CC(C)(C)NC2=O)NC2N=NC(C(F)(F)F)=C21 (stereo unspecified) [US20250313563, Compound 947677]
< 100 nM	< 100 nM	CCC1(c2cccc(S(=O)(=O)CC3CC3)c2)C2=C(CC(C)(C)NC2=O)NC2=C1C(C(F)(F)F)N=N2 (stereo unspecified) [US20250313563, Compound 948179]
< 100 nM	100 to 1000 nM	CCC1(c2cccc(S(=O)(=O)CC3CC3)c2)C2=CN=NC2NC2=C1C(=O)NC(C)(C)C2 (stereo unspecified) [US20250313563, Compound 948177]
< 100 nM	100 to 1000 nM	COc1ccccc1S(=O)(=O)N1CCCC2(CC1)C1=CN=NC1NC1=C2C(=O)CC(C)(C)C1 (stereo unspecified) [US20250313563, Compound 917142]
< 100 nM	< 100 nM	CC1(C)CC(=O)C2=C(C1)NC1=C(CN=N1)[C@@]21CCN(S(C)(=O)=O)C1 [US20250313563, Compound 942462]
< 100 nM	100 to 1000 nM	CC[C@]1(c2cccc(-c3cnn(C)c3)c2)C2=C(CC(C)(C)NC2=O)NC2N=NC(C(F)(F)F)=C21 (stereo partly specified) [US20250313563, Compound 947871]
< 100 nM	< 100 nM and 100 to 1000 nM	CC1(C)CC(=O)C2=C(C1)NC1=C(CN=N1)C21CCN(S(=O)(=O)C2CCCC2)CC1 [US20250313563, Compound 909206]
< 100 nM	< 100 nM	CCC1(c2cccc(-c3ccnn3C)c2)C2=C(CC(C)(C)CC2=O)NC2N=NC(C)=C21 (stereo unspecified) [US20250313563, Compound 883992]
< 100 nM	< 100 nM	CC1(C)CC(=O)C2=C(C1)NC1N=NC=C1[C@]21CCCc2c(-c3ccncc3)cccc21 (stereo partly specified) [US20250313563, Compound 945548]
< 100 nM	< 100 nM	CCC1(c2cccc(N(C)c3ncccn3)c2)C2=C(CC(C)(C)NC2=O)NC2N=NC(C(F)F)=C21 (stereo unspecified) [US20250313563, Compound 950484]
< 100 nM	< 100 nM	COc1ccc(S(=O)(=O)N2CCC3(CC2)C2=C(N=NC2)NC2=C3C(=O)CC(C)(C)C2)cc1C [US20250313563, Compound 945680]
< 100 nM	100 to 1000 nM	CC[C@@]1(c2cccc(-c3ccncc3F)c2)C2=C(CC(C)(C)CC2=O)NC2N=NC(C(F)(F)F)=C21 (stereo partly specified) [US20250313563, Compound 947327]
< 100 nM	< 100 nM	CC[C@]1(c2cccc(-c3cnn(C)c3)c2)C2=C(CC(C)(C)CC2=O)NC2N=NC(C(F)(F)F)=C21 (stereo partly specified) [US20250313563, Compound 811565]
